Laboratory results from patent US20180264134A1, “A COMPOSITION OF GOLD NANOPARTICLES HAVING ANTIMICROBIAL PEPTIDES BOUND ON THEIR SURFACE FOR USE THE TREATMENT OF WOUND HEALING OR IN THE TREATMENT OF ISCHEMIC OR VASCULAR DISEASES OR IN THE TREATMENT OF SKIN DISORDERS” (priority 2015, published 2018).

Legend:
HaCaT keratinocyte cells = experiment: Internalization mechanism (endocytosis inhibitors / siRNA, flow cytometry); type: cell-based, human; details: vs scrambled siRNA
Procedure: In an embodiment the HaCaT keratinocyte cells were cultured on 24 well plates (1×10^6 cells/well) and inhibited by one of the following chemicals during 30 min before adding a suspension of Rhodamine-labelled NPs (15 μg/mL): dynasor (100 μM), cytochalasin D (100 μM), nocodazole (25 uM), filipin III (1 μM) and polyinosinic acid (100 μg/mL), 5-(N-ethyl-N-isopropyl)amiloride (EIPA), dextran sulfate. The inhibitor concentrations were based in values reported in literature and further validated by us to have no cytotoxic effect over the period of the assay (6 h), as confirmed by viability assay. The incubation of the cells with NPs for different times was performed in the presence of the inhibitor. As controls, HaCaT keratinocyte cells without NPs and cells incubated with NPs without inhibitor were used. […] Cells were then evaluated as before.
In an embodiment the NP uptake mechanism was also studied on HaCaT keratinocyte cells by silencing specific proteins of clathrin-mediated endocytosis (CLTC and LDLR), caveolin-mediated endocytosis (CAV1), GEEC-CCLIC pathways (CDC42) and macropinocytosis (RAC1 and CTBP1) and scavenger receptor (SCARA3) by siRNA (Thermo Fisher). […] In all FACS analysis, a total of 10,000 events were recorded per run. […]

HUVECs [1] = experiment: Cytotoxicity in HUVECs (PI viability, ATP, ROS); type: cell-based
Procedure: In an embodiment of the cytotoxicity studies in HUVECs and HaCaT may be seeded at a density of 1×10^4 and 2×10^4 cells per well respectively and cultured in a 96-well plate for 24 and then incubated with soluble LL37 (0.5, 1, 10, 30, 60 μg/mL), LL37 Au-NPs and AuNPs suspended in culture medium at different concentrations (25, 50, 100 and 200 μg/mL). After 5 and 24 h, CellTiter-Glo® Luminescent Cell Viability Assay (Promega) was used to assess the ATP production of the cells according to the supplier's instructions. For ROS quantification, cells were seeded at a density of 4×10^4 cells/cm^2 in 24-well plates and cultured for 24 h. Either LL37-Au NPs or Au NPs suspended in culture medium at different concentrations (25, 50, 100 and 200 μg/mL) were added to cells and left for 5 h and 48 h. Before the treatment ended, cells were dosed with 100 μM of 6-carboxy-2′,7′-dichlorodihydrofluorescein diacetate (DCFH-DA), a dye commonly used to measure intracellular changes in ROS, for 1 hour. After washing the cells twice, they were trypsinized, centrifuged and resuspended in PBS to proceed with flow cytometry analysis (FACS Canto II, BD Biosciences). 1 mM H2O2 was used as a positive control for ROS production. In addition, propidium iodide (PI) (1 μg/mL final concentration) was used to quantify cell viability and to exclude the dead cells (i.e. PI positive cells) from the DCFH analysis.

HaCaT = experiment: Membrane potential by DiOC5(3) flow cytometry in HaCaT; type: cell-based, human
Procedure: In an embodiment the membrane potential can be determined by: HUVEC and HaCaT cells were seeded at a density of 4×10^4 cells/cm^2 and in 24-well plates and cultured for 24 h. […] Soluble LL37 were also used in the concentration of 0.5, 1, 10, 30, 60 μg/mL. After 5 and 48 h, cells were harvested, resuspended in medium with 5 nM of DiOC5(3) (Sigma-Aldrich) and incubated for 5 min at room temperature in the dark, prior to the analysis with the flow cytometer (FACSCalibur, BD Biosciences). Cells treated with gramicidin (10 μM) or valinomycin (10 μM) were used as controls for cell depolarization and hyperpolarization, respectively.

HUVECs [2] = experiment: VEGF secretion in HUVECs (ELISA); type: cell-based, human; details: 24 h, LL37 5 μg/mL, NPs 200 μg/mL
Procedure: In an embodiment measurement of VEGF amount in HUVECs can be perform by the following method: HUVECs were seeded at a density of 4×10^4 cells/cm^2 in 24-well plates and cultured for 24 h in EGM-2 without VEGF. LL-37 (5 μg/mL), LL37 AUNPs and AuNPs (200 μg/mL) suspended in culture medium without VEGF at different concentrations were added to cells. LL-37 (5 μg/mL) and LL-37 AUNPs (200 μg/mL) were also incubated in the presence of 10 μM of FPRL1 Antagonist. After 24 h of incubation, cell media from all the conditions were collected and used to quantify VEGF amount in supernatants. In order to calculate the amount of VEGF in supernatants, Human VEGF ELISA development Kit (PeproTech) was used according to the manufacture's instructions. A calibration curve was used for the ranging between 0-1000 pg/mL VEGF.

## CC[C@H](C)[C@H](NC(=O)[C@H](CCCCN)NC(=O)[C@H](CCC(=O)O)NC(=O)[C@H](CCCCN)NC(=O)[C@H](CO)NC(=O)[C@H](CCCCN)NC(=O)[C@H](CCCNC(=N)N)NC(=O)[C@H](Cc1ccccc1)NC(=O)[C@H](Cc1ccccc1)NC(=O)[C@H](CC(=O)O)NC(=O)CNC(=O)[C@H](CC(C)C)NC(=O)[C@@H](N)CC(C)C)C(=O)NCC(=O)N[C@@H](CCCCN)C(=O)N[C@@H](CCC(=O)O)C(=O)N[C@@H](Cc1ccccc1)C(=O)N[C@@H](CCCCN)C(=O)N[C@@H](CCCNC(=N)N)C(=O)N[C@H](C(=O)N[C@H](C(=O)N[C@@H](CCC(N)=O)C(=O)N[C@@H](CCCNC(=N)N)C(=O)N[C@H](C(=O)N[C@@H](CCCCN)C(=O)N[C@@H](CC(=O)O)C(=O)N[C@@H](Cc1ccccc1)C(=O)N[C@@H](CC(C)C)C(=O)N[C@@H](CCCNC(=N)N)C(=O)N[C@@H](CC(N)=O)C(=O)N[C@@H](CC(C)C)C(=O)N[C@H](C(=O)N1CCC[C@H]1C(=O)N[C@@H](CCCNC(=N)N)C(=O)N[C@H](C(=O)N[C@@H](CCC(=O)O)C(=O)N[C@@H](CO)C(=O)N[C@@H](CS)C(N)=O)[C@@H](C)O)C(C)C)[C@@H](C)CC)C(C)C)[C@@H](C)CC [LL37]
HaCaT keratinocyte cells
  reduction of uptake upon SCARA3 siRNA knockdown: 60%
HUVECs [1]
  concentration showing cytotoxic effect: 10000 ng/mL
HUVECs [1]; 5 and 48 h
  concentration up to which no significant change in cell viability, ATP production, ROS: ≤ 30000 ng/mL
HUVECs [1]; 48 h
  concentration at which significant cell death and ROS production were observed: 30000 ng/mL
HaCaT; 5 h of contact
  membrane potential of keratinocytes: hyperpolarized
HaCaT; 48 h of contact
  membrane potential of keratinocytes: not observed
HaCaT; 48 h of contact, listed as LL37 peptide
  membrane potential of keratinocytes: the effect was lost
HaCaT; NPs up to 400 μg/mL
  membrane potential of HaCaT: not altered
HaCaT; keratinocytes, 5 h exposure
  concentration causing slight hyperpolarization: above 25 μg/mL
HUVECs [2]
  secretion of VEGF165: induce the secretion
